Paper PMC6238539, “Discovery of a cofactor-independent inhibitor of Mycobacterium tuberculosis InhA” (Life Science Alliance, 2018)
Read-outs that look alike come from different tables or passages of the source.

Tests used:
M. tuberculosis InhA [1] = biological target: T1, M. tuberculosis InhA (Mycobacterium tuberculosis, UniProt P9WGR1); experiment: InhA in vitro inhibition assay; assay type: biochemical
M. tuberculosis H37Rv [2] = experiment: microbe, parasite or virus in culture; assay type: cell-based, Mycobacterium tuberculosis; conditions: for IC90: Mycobacterium tuberculosis, H37RV, whole-cell M. tuberculosis
[3] = tested on: intracellular M. tuberculosis in THP-1 cells; experiment: microbe, parasite or virus in culture; assay type: cell-based; conditions: Mycobacterium tuberculosis
in vitro [4] = assay type: cell-based; conditions: human; read-out: HepG2 cytotoxicity IC50
Procedure: HepG2 human liver cells (ATCC HB 8065) were propagated in DMEM containing either 25 mM glucose or 10 mM galactose plus 10% vol/vol FBS, 1 mM sodium pyruvate, 2 mM Corning glutagro, 100 U/ml penicillin, and 100 μg/ml streptomycin. The cells were seeded in 384-well plates at 1,800 cells per well and incubated in a humidified incubator at 37°C, 5% CO2. Compounds were solubilized in DMSO and assayed using a 10-point threefold serial dilution. Compounds were added 24 h post cell seeding to a final assay concentration of 1% DMSO and highest compound concentration of 100 μM. The cells were incubated for 72 h and viability measured using CellTiter-Glo reagent (Promega) and reading RLU. Growth inhibition curves were fitted using the Levenberg–Marquardt algorithm. The IC50 was defined as the compound concentration that produced 50% of the inhibitory response against HepG2 cells.

M. tuberculosis H37Rv [5] = experiment: Kill kinetics under replicating conditions; assay type: cell-based, Mycobacterium tuberculosis
in vitro [6] = conditions: human
M. tuberculosis InhA [7] = biological target: T1, M. tuberculosis InhA; experiment: biochemical; assay type: binding
M. tuberculosis Erdman = assay type: in vivo, Mycobacterium tuberculosis; conditions: dose escalation study (Table S4), 25 mg/kg, day 22

T1 sequence (P9WGR1 whole entry, looked up): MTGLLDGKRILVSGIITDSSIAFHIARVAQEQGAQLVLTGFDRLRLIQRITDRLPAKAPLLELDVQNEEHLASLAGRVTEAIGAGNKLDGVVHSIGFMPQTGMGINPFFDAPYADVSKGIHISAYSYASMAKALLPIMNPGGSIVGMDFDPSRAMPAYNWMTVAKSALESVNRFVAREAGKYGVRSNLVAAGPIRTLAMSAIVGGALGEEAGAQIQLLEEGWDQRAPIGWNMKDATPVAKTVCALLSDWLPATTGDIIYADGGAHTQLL

SMILES: OB1OCc2ccc(Oc3ccc(C(F)(F)F)cc3)cc21 [AN2918]
- IC50 (M. tuberculosis InhA [1]): 44 µM
- IC90 (M. tuberculosis H37Rv [2]): > 200 µM

SMILES: N#Cc1ccc(Oc2ccc3c(c2)COB3O)c(/C=N/O)c1 [AN3438]
- IC50 (M. tuberculosis InhA [1]): 12 µM
- IC90 (M. tuberculosis H37Rv [2]): 16 ± 1.2 µM

SMILES: CS(=O)(=O)N1N=Cc2ccc(Oc3ccc(C#N)cc3)cc2B1O [AN6534]
- IC50 (M. tuberculosis InhA [1]): 79 µM
- IC90 (M. tuberculosis H37Rv [2]): 36 ± 1.7 µM

SMILES: CS(=O)(=O)N1N=Cc2ccc(Oc3ccc(C(F)(F)F)cc3/C=N/O)cc2B1O [AN12541]
- IC50 (M. tuberculosis InhA [1]): 0.4 µM
- increase in potency against purified InhA (M. tuberculosis InhA [1]; versus AN6534): 190 fold
- IC90 (M. tuberculosis H37Rv [2]): 0.11 ± 0.21 µM
- increase in potency against M. tuberculosis (M. tuberculosis H37Rv [2]; versus AN6534): 350 fold
- IC50 [3]: 0.046 ± 0.013 µM
- IC90 [3]: 0.11 ± 0.01 µM
- IC50 (in vitro [4]): > 100 µM
- bactericidal activity (M. tuberculosis H37Rv [5]): similarly active
- IC50 (in vitro [6]): > 50 µM

SMILES: CCS(=O)(=O)N1N=Cc2cc(Oc3ccc(C(F)(F)F)cc3/C=N/O)ccc2B1O [AN12908]
- IC50 (M. tuberculosis InhA [1]): 2.3 µM
- IC90 (M. tuberculosis H37Rv [2]): 7 ± 2.6 µM
- cofactor dependence of binding to InhA (M. tuberculosis InhA [7]): dependent on NAD^+ for binding
- Kd (M. tuberculosis InhA [7]; cofactor: NAD^+): 0.847 ± 0.318 µM
- N (stoichiometry of binding) (M. tuberculosis InhA [7]; cofactor: NAD^+): 0.49 ± 0.022
- ∆H (M. tuberculosis InhA [7]; cofactor: NAD^+): −25,010 ± 1,496 cal/mol
- ∆S (M. tuberculosis InhA [7]; cofactor: NAD^+): −56 cal/mol/deg

SMILES: NNC(=O)c1ccncc1 [INH, isoniazid]
- IC90 (M. tuberculosis H37Rv [2]): 0.2 µM
- Mean ± SEM Log10 CFU (M. tuberculosis Erdman; lung): 4.6 ± 0.06 Log10 CFU
- Mean ± SEM Log10 CFU (M. tuberculosis Erdman; spleen): 2.4 ± 0.15 Log10 CFU
